The source made the active and inactive calls. No rule for the calls is given here.
Target: Nuclear receptor coactivator 1 (Homo sapiens) (UniProt Q15788)
Assay: NCOA1 reporter inhibition potency – cell-based, luminescence, counter-screen for SRC3 inhibitor project, dose response (AID 602168)
Settings: Cell-based SRC1 luciferase reporter

Chain of Nuclear receptor coactivator 1 (Homo sapiens) (Q15788 whole entry, looked up): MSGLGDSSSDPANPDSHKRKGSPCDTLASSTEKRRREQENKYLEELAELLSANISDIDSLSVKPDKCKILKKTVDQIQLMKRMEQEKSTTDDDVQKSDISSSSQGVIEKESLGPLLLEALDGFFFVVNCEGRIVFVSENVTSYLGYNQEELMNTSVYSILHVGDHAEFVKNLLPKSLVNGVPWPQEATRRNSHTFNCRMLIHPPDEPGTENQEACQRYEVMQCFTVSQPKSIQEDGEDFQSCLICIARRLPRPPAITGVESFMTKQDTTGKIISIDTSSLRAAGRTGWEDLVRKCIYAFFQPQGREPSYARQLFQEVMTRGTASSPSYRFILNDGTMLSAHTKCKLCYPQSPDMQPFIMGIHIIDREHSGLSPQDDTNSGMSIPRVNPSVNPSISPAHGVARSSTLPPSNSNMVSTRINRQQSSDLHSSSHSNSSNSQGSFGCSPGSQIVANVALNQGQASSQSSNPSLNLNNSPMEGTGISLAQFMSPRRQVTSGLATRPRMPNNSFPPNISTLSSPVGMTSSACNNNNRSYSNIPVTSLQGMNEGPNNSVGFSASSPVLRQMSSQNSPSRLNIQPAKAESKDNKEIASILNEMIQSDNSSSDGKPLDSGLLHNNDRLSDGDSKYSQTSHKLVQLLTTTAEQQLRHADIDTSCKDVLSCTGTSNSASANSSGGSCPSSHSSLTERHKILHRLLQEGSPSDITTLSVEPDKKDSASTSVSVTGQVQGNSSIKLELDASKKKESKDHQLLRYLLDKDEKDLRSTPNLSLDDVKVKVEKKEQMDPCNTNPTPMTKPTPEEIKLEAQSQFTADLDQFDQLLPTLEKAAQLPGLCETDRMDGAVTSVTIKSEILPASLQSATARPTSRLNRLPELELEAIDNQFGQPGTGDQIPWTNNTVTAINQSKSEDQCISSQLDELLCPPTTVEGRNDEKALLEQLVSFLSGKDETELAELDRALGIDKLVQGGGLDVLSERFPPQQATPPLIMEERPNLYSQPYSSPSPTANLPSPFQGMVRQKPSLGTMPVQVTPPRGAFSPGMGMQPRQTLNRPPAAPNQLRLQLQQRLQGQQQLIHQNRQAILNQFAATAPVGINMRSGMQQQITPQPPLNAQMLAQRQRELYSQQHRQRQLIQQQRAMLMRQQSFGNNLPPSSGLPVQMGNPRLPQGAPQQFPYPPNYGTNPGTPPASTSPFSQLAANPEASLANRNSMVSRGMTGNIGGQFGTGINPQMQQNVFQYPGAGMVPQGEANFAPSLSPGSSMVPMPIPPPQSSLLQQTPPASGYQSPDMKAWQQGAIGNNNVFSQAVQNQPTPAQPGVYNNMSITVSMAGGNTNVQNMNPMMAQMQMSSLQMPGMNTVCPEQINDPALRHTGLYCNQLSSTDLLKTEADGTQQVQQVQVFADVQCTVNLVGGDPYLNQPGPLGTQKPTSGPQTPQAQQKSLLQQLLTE

SMILES | IC50
NC(=S)N/N=C1\CCOc2ccc(Cl)cc21 | > 35.9 µM (inactive)
CC1(C)N=C(N)N=C(N)N1CCCCc1ccccc1 | 4.58 µM
c1ccc2c(c1)Nc1ccncc1S2 | inactive
Fc1ccccc1-c1csc(=Nc2cccnc2)n1CCCn1ccnc1 | 7.21 µM
O=C(CC1CS(=O)(=O)CC1CC(=O)Nc1ccc2c(c1)OCCO2)Nc1ccc2c(c1)OCCO2 (stereo not given) | > 35.9 µM (inactive)
CC(=O)c1cccc(-c2csc3ncnc(Sc4nnnn4C)c23)c1 | > 35.9 µM (inactive)
CN(Cc1cnc2nc(N)nc(N)c2n1)c1ccc(C(=O)N[C@@H](CCC(=O)O)C(=O)O)cc1 | > 35.9 µM (inactive)
C(=Cc1cnc2ccccc2n1)c1ccc2c(c1)OCO2 | inactive
CS(=O)c1nc(-c2ccc(Br)cc2)cc(-c2ccccc2)c1C#N (stereo not given) | inactive
Cc1cc2nccc(-c3ccncc3)n2n1 | inactive
Cc1ccc2occ(/C=N/NC(=O)[C@@H](N)Cc3ccccc3)c(=O)c2c1 | inactive
O=c1[nH]c2ccccc2n1C1CCN(C(c2cccc3ccccc23)c2nnnn2-c2ccc3c(c2)OCCO3)CC1 (stereo not given) | inactive
COc1cc(NS(C)(=O)=O)ccc1Nc1c2ccccc2nc2ccccc12 | > 35.9 µM (inactive)
COc1cc(C(=O)OCC(=O)Nc2sccc2C(N)=O)cc(OC)c1OC | > 35.9 µM (inactive)
O=C(Nc1nc2cc3c(cc2s1)OCCO3)C1=COCCO1 | inactive
Cn1cnc([N+](=O)[O-])c1Sc1nc(N)nc2c1ncn2C1OC(CO)C(O)C1O (stereo not given) | > 35.9 µM (inactive)
O=C(NCCCn1ccnc1)c1ccc(N2CCCCCC2)c([N+](=O)[O-])c1 | inactive
O=c1[nH]c2ccccc2n1C1CCN(C(c2ccccc2)c2nnnn2Cc2ccccc2)CC1 (stereo not given) | inactive
NC(=O)c1sc2nc3c(c(-c4ccco4)c2c1N)CCC3 | 3.29 µM
C(=NNc1ccc2ccccc2n1)c1ccccn1 | > 35.9 µM (inactive)
Cc1ccc(N(CCC#N)C(=O)CCl)cc1C | inactive
Cc1ccc(C(=O)O/N=C(\N)c2ccccn2)c(Cl)c1 | > 35.9 µM (inactive)
O=c1[nH]c2ccccc2n1C1CCN(C(c2ccccc2)c2nnnn2-c2ccc3c(c2)OCCO3)CC1 (stereo not given) | inactive
O=C(N/N=C(\c1ccccc1)c1ccccn1)c1ccccc1Cl | inactive
COc1cc2c(cc1OC)C(C)N(C(=O)c1cccc([N+](=O)[O-])c1)CC2 (stereo not given) | inactive
CN(Cc1cnc2nc(N)nc(N)c2n1)c1ccc(C(=O)NC(CCC(=O)O)C(=O)O)c2ccccc12 (stereo not given) | > 35.9 µM (inactive)
O=C(CCl)Nc1cccc(-c2cnc3ccccc3n2)c1 | inactive

SMILES | IC50
COc1cc2oc(=O)cc(-c3ccc(-c4ccc(CO)cc4)cc3)c2c(OC)c1OC | 8.05 µM
CCOc1ccccc1-n1c(SCC(=O)Nc2ccccc2C(=O)O)nc2ccccc2c1=O | > 35.9 µM (inactive)
CCOc1cc(/C=C2\CCC/C(=C\c3cc(Cl)c(O)c(OCC)c3)C2=O)cc(Cl)c1O | > 35.8 µM (inactive)
O=C(NCc1ccccc1)c1c(Cl)nc(Cl)c(Cl)c1Cl | > 35.9 µM (inactive)
COCCNC(=O)c1cc(-c2ccccn2)nc2ccc(S(=O)(=O)N3CCC(C)CC3)cc12 | > 35.9 µM (inactive)
Cc1cccc(CN2CCN(C(=O)CCl)CC2)c1 | > 35.9 µM (inactive)
COc1ccc(OC)c(N/C=C/C(=O)c2ccccc2)c1 | inactive
N#Cc1c2ccc(O)cc2n2ccccc12 | inactive
CN(C)c1ccc(C(=S)Nc2ccccc2)cc1 | > 35.9 µM (inactive)
O=C(Nc1cccc(C(F)(F)F)c1)Nc1nnc([C@@H]2C[C@H](O)[C@@H](CO)O2)s1 | 5.71 µM
Cc1ccc(-n2c(C)cc(C(=O)COc3cccnc3[N+](=O)[O-])c2C)cc1 | > 35.9 µM (inactive)
O=C(CCl)N(c1ccccc1)C1CCS(=O)(=O)C1 (stereo not given) | inactive
COc1cc2c(ccc3cc(OC)c(OC)c(O)c32)cc1O | inactive
NC(=S)N/N=C1\CCSc2ccc(Cl)cc21 | > 35.8 µM (inactive)
Cc1ccc2nc(C(F)(F)F)c(C#N)c(N)c2c1 | inactive
CNc1ncnc(Sc2nc(N)nc3nc[nH]c23)c1[N+](=O)[O-] | > 35.9 µM (inactive)
Nc1ncccc1C(=O)OCC(=O)N1CCN(S(=O)(=O)c2ccc(Cl)cc2)CC1 | inactive
COc1ccc(-n2cnc3c(sc4nccc(N(C)C)c43)c2=O)cc1 | inactive
CN1CCN(c2ccc(NC(=O)N3CCc4ccccc43)cc2)CC1 | > 35.9 µM (inactive)
C/C(=N\NC(=S)Nc1cc(S(=O)(=O)N2CCOCC2)ccc1Cl)c1ccccc1F | inactive
COc1ccc(COC(=O)C2=C(C)NC(=O)NC2c2ccc(F)cc2)cc1 (stereo not given) | inactive
COc1cccc(/C=N/Nc2cc(-n3nc(C)cc3-c3ccccc3)ncn2)c1O | inactive
CCCC(=O)NC(c1ccc(Cl)cc1)c1ccc2cccnc2c1O (stereo not given) | 8.71 µM
COc1ccccc1C(=O)N(CCC1CCCN1C)c1nc2ccccc2s1 (stereo not given) | > 35.9 µM (inactive)
Cc1nc([N+](=O)[O-])c(Sc2nc3ccccc3n2C)n1Cc1ccccc1 | > 35.9 µM (inactive)
CN[C@H]1CCc2cc(OC)c(OC)c(OC)c2-c2ccc(OC)c(=O)cc21 | > 35.9 µM (inactive)
CCn1c2ccccc2c2cnc(N=CN(C)C)c(C#N)c21 | inactive

SMILES | IC50
COc1ccccc1N(C(=O)CCl)c1cn(C(C)=O)c2ccccc12 | > 35.9 µM (inactive)
OCCN1CCN(C(=S)c2ccc(-c3ccccc3)cc2)CC1 | 3.67 µM
COc1ccc(/C=C2\CC/C(=C\c3ccc(OC)c(OC)c3)C2=O)cc1OC | > 35.9 µM (inactive)
Nc1ccc(Oc2ccccc2-c2ccccc2)cc1 | inactive
O=[N+]([O-])c1cccc2c1ccc1ncccc12 | inactive
O=C(c1ccncc1)N(Cc1cc2ccccc2[nH]c1=O)C1CCCCC1 | 7.48 µM
C=CS(=O)(=O)N(Cc1ccc(Cl)c(Cl)c1)C[C@@H](O)CO | > 35.8 µM (inactive)
Cc1ccc(NC(=O)c2cc(C)n(-c3ccccc3)c2C)cc1 | > 35.9 µM (inactive)
CC(=O)N1CCN(c2ncnc3ccccc23)CC1 | inactive
Nc1nc2c(nnn2C2CC(O)C(CO)O2)c(=O)[nH]1 (stereo not given) | > 35.9 µM (inactive)
CC(C)(C)c1ccc(Oc2ccc(N)cn2)cc1 | inactive
Nc1nc(=S)c2ncn([C@@H]3O[C@H](CO)[C@@H](O)[C@H]3O)c2[nH]1 | > 35.9 µM (inactive)
C=CCn1c(C)cc(C(=O)COc2ccc(C)nc2[N+](=O)[O-])c1C | > 35.9 µM (inactive)
CCc1ccc(/C=C2\SC(=S)N(CCCC(=O)NCCCN3CCOCC3)C2=O)cc1 | inactive
S=C(Nc1ccccc1)Nc1ccc(OCc2ccc(Cl)cc2Cl)cc1 | inactive
COc1cccc2c1C(=N)c1c(O)c3c(c(O)c1C2=O)CC(O)(C(C)=O)CC3OC1CC(N)C(O)C(C)O1 (stereo not given) | > 35.9 µM (inactive)
O=C(COC(=O)c1ccc[nH]c1=O)Nc1ccc(N2CCCCC2)cc1 | > 35.9 µM (inactive)
CCOc1ccc(Nc2cc(C)nc(-n3nc(C)cc3C)n2)cc1 | > 35.9 µM (inactive)
CCC(=O)N1CCN(c2ccnc3cc(Cl)ccc23)CC1 | inactive
COC(CN(C(=O)CCl)C(C(=O)NC1CCCCC1)c1ccccc1C)OC (stereo not given) | inactive
CC(=O)/C(N=Nc1ccc2c(c1)OCCO2)=C(\C)O | > 35.9 µM (inactive)
Cc1ccc(/C=C2\SC(=S)N(CCCC(=O)NC3CCCC3)C2=O)cc1 | 3.26 µM
Cc1nc(N2CCC(C(N)=O)CC2)c2c(-c3cccs3)csc2n1 | 8.33 µM
C=CCOc1ccc(/C=C2\SC(=S)N(CCC(=O)O)C2=O)cc1 | 6.96 µM
CN(C)/C=C/C(=O)c1ccc2noc(-c3ccccc3)c2c1 | inactive
COc1ccc(Nc2ccncc2[N+](=O)[O-])cc1 | 9.17 µM
COc1cc2[nH]c3c(Cl)ncnc3c2cc1OC | > 35.9 µM (inactive)

SMILES | IC50
Cc1cc(C(=O)CN2C(=O)c3ccccc3S2(=O)=O)c(C)n1C(C)C | inactive
Cc1ccc(N=Nc2ccc3ccccc3c2O)cc1 | > 35.9 µM (inactive)
O=[N+]([O-])c1ccc(N(CCO)CCO)c2c1no[n+]2[O-] | inactive
Fc1ccc(CSc2nnc(-c3ccncc3)o2)cc1 | 3.43 µM
CC(=O)c1ccc(Nc2c3c(nc4ccccc24)CCCC3)cc1 | > 35.9 µM (inactive)
COc1cc(C(=O)N/N=C(\c2ccccc2)c2ccccn2)cc(OC)c1OC | > 12 µM (inactive)
COc1cc(/C=N/NC(N)=S)cc(Br)c1OCc1ccccc1F | inactive
O=C(COc1ccc(Cl)cc1)Nc1ccc(C(=O)NCc2cccnc2)cc1 | 9.27 µM
O=S(=O)(/C(=C\c1ccc(C(F)(F)F)cc1)c1nc2ccccc2[nH]1)c1ccccc1 | > 12 µM (inactive)
COc1cc(/C=C2\CC(C(C)(C)C)C/C(=C\c3cc(OC)c(OC)c(OC)c3)C2=O)cc(OC)c1OC (stereo not given) | > 35.9 µM (inactive)
CCC(=O)c1ccc(O)c(CC=C(C)C)c1 | inactive
CCn1ccnc1CN(C)Cc1cn[nH]c1-c1ccc(OC)c(F)c1 | 9.9 µM
COC(=O)c1cccc2c1-c1ccccc1/C2=N/O | 6.3 µM
c1csc(Cc2nn3c(-c4ccncc4)nnc3s2)c1 | inactive
O=c1[nH]cnc2c1nnn2C1OC(CO)C(O)C1O (stereo not given) | > 35.8 µM (inactive)
Cc1ccc(/C=C2/SC(=S)N(CCCC(=O)Nc3ccc(O)cc3)C2=O)cc1 | > 35.9 µM (inactive)
COc1cccc(CNc2ncnc3ccc(-c4c(C)noc4C)cc23)c1 | > 35.9 µM (inactive)
O=C(NC(NC(=S)N1CCOCC1)C(Cl)(Cl)Cl)c1ccc(Cl)cc1 (stereo not given) | inactive
O=C(Nc1ccccc1Oc1ccccc1)c1cc([N+](=O)[O-])ccc1Cl | inactive
COc1cccc(F)c1C(C[N+](=O)[O-])c1c(N)n(C)c(=O)n(C)c1=O (stereo not given) | inactive
Cc1c(CC(=O)NCCCC(=O)O)c(=O)oc2cc3c(cc12)CCC(C)(C)O3 | 9.04 µM
c1ccc(-c2nnc(-c3ccccn3)nc2NC2CCCCC2)cc1 | 4.38 µM
Cc1sc2ncnc(N3CCC(C(=O)Nc4ccccc4C(C)(C)C)CC3)c2c1C | 7.15 µM
CCOC(=O)CC(=O)CSc1nccc(-c2cccnc2)n1 | > 35.9 µM (inactive)
